Test results: patent publication US20260027073A1, “USE OF SMALL-MOLECULE COMPOUND HAVING NAPHTHYLAMINE STRUCTURE” (HANGZHOU PHECDAMED CO., LTD., priority 2023, published 2026)

How the values were obtained:
[1] = tested on: LPS-induced sepsis in mice; experiment: LPS-induced sepsis survival; type: in vivo, C57 mice; conditions: 8th day; 10 mg/kg intraperitoneal once a day; LPS alone about 20%; FIG. 33
Procedure: A constructed preclinical sepsis model is a LPS-induced sepsis in mice. Injection of purified LPS into mice by intraperitoneal route or intravenous route can lead to activation of the innate immune system and simulate fulminant Gram-negative bacterial infections, the specific modeling method is as follows: 20-25 g C57 mice were selected, and 20 mg/kg LPS was injected intraperitoneally according to the body weight (the LPS was dissolved with PBS), and the experiment was divided into three groups, a model control group (LPS), a positive control treatment group (prednisone, 10 mg/kg), TJ01-013 treatment group (TJ01-013, 10 mg/kg), the mode of administration was intraperitoneal injection, the volume of administration was 5 ml/kg, the frequency of administration was once a day, and the biological deaths and changes in body weights of the mice were observed and recorded every day, and the mice were regarded as physiologically dead if their body weights decreased by 20% or more compared with that before the administration of LPS. Survival curves were plotted based on deaths observed up to 8 days after administration.

[2] = tested on: myocardial infarction rats; experiment: Myocardial infarction by coronary artery ligation; type: in vivo, SD rats; conditions: TJ01-013 30 mg/kg, Entresto 10 mg/kg, oral, 4 weeks
Procedure: 180 g-200 g SD rats were anesthetized by chloral hydrate after fasting for 12 h, the hair from the mandible to the upper part of the abdominal cavity and the ventral surfaces of the limbs was removed cleanly, and they were fixed on the surgical table, firstly, a small incision of about 1.5 cm was made in the neck with a scalpel, and then the subcutaneous muscle layer was bluntly separated with surgical scissors to expose the trachea, and then the tracheal tube was intubated and connected to the animal respiratory machine. After sterilizing with iodophor, the skin was cut on the left side of the chest between the 3rd and 4th ribs, and the muscles were bluntly separated to expose the ribs. The 3rd rib was cut with surgical scissors, hemostatic forceps were used to clamp and break the cut rib, and an eyelid opener was placed to peel the pericardium. After the pericardium was cut, a cotton swab moistened with saline was used to gently pivot the heart to locate the left auricle and coronary arteries. A threaded suture needle was clamped with a microscopic needle holder, and passed through the myocardium from right to left at 2-3 mm below the left auricle to ligate the coronary artery. At the end of the ligation, the organs in the thoracic cavity were recovered with saline-soaked cotton swabs, and figure-of-eight sutures were applied to the third and fourth ribs. After the rib layer suture was completed, subcutaneous muscle layering suture was performed, and the skin was finally sutured. After dialing out the tracheal tube, the rats were closely observed whether they had spontaneous respiration or not, and if there was no respiration they should be immediately pressed on the chest cavity for cardiopulmonary resuscitation. The electrocardiograph was connected to measure the postoperative electrocardiogram. […] The drug was administered orally by gavage in a volume of 10 ml/kg, and the frequency of administration was once a day for 4 weeks, and then the rats were anesthetized for cardiac ultrasound.
The rats were anesthetized by intraperitoneal injection of sodium pentobarbital 40 mg/kg, and the limbs were fixed on a wooden board in supine position, and the board was tilted to the left at 30 degrees. The chest was shaved and a II lead ECG was connected. A ULTRAMARK 9 ultrasonic diagnostic instrument from ATL, USA was used with a wide bandwidth line array probe with a frequency of 10 MHz-5 MHz. The Doppler detection frequency was 6.0 MHz, the length of the probe was 38 mm, the gain of the instrument was fixedly set as 50 dB in the experiment, and the depth of the image was adjusted to 2.5 cm. The probe was placed on the left side of the sternum at 10-30 degrees from the midline of the sternum to display the parasternal left ventricular long-axis view, and the probe was rotated clockwise by 90 degrees to display the left ventricular view. Doppler flow measurements of the mitral and aortic valves were performed in the parasternal left ventricular long-axis view and the pulmonary artery long-axis view. Ultrasound measurement indexes included left ventricular end-diastolic internal diameter (LVDd), end-systolic internal diameters (LVDs), left ventricular ejection fraction EF, left ventricular short-axis shortening rate FS, and infarct size.

[3] = tested on: chronic obstructive pulmonary disease model rats; experiment: Chronic obstructive pulmonary disease (LPS plus passive smoking); type: in vivo, SD rats; conditions: gavage 3 weeks, FIG. 62
Procedure: After 5-week-old male SD rats were adaptively fed for 1 week, they were randomly grouped according to their body weights into five groups, i.e., a normal control group (normal, n=10), a model control group (Control, n=10), a TJ01-013 7.5 mg/kg treatment group (7.5 mg/kg, n=10), a TJ01-013 15 mg/kg treatment group (15 mg/kg, n=10), TJ01-013 30 mg/kg treatment group (30 mg/kg, n=10). The model was replicated using the intra-airway injection of lipopolysaccharide method combined with passive smoking method, which is a recognized model for chronic obstructive pulmonary disease. […] From the second day of modeling, the normal control group and the model control group were treated with vehicle (0.5% CMC-Na) by gavage, and the TJ01-013 treatment group was treated with the corresponding concentration of TJ01-013 in a volume of 10 ml/kg for a total of 3 weeks, and blood was collected from the posterior bulbous vein of the rat after administration, and the blood was centrifuged at 6,000 rpm for 10 min after standing still at room temperature for 30 min, then the upper layer of serum was taken, and the levels of TNFα and CXCL1 in serum were detected by enzyme-linked immunosorbent assay (ELISA).

O=C(O)C[S+]([O-])c1cc(NS(=O)(=O)c2ccc(Br)cc2)c2ccccc2c1O (centres unmarked) [I-1]
survival rate [1]: 80% | infarct size ([2]; FIG. 37): reduced | left ventricular end-diastolic diameter (LVDd) ([2]; FIG. 38): no significant effect | end-systolic diameter (LVDs) ([2]; FIG. 39): did not have a significant effect | left ventricular ejection fraction EF ([2]; FIG. 40): significantly increased | left ventricular short-axis fractional shortening FS ([2]; FIG. 41): significantly increased | serum CXCL1 level ([3]; 15 mg/kg and 30 mg/kg): reduce | serum TNFα level ([3]; 30 mg/kg): reduced the serum TNFα level, and the difference was significant
